Experimental data taken from BindingDB's records for patent US11884682 (Nanjing Immunophage Biotech Co., 2024).

Target: T1, Macrophage migration inhibitory factor (Homo sapiens, UniProt P14174)
T1 sequence (P14174 whole entry): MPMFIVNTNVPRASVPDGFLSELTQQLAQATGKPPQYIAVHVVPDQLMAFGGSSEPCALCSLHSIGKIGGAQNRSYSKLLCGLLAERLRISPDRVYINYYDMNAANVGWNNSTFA
Test: MIF Enzymatic Assay
Procedure: Assays were performed in small-volume clear-bottom black 96 or 384-well polystyrene plates (Greiner Bio-One). First, 2 μL of the enzyme solution containing 6 nM of MIF in DPBS, 0.025% w/v BSA, and 300 μM CHAPS was dispensed onto sample and negative control wells using Multidrop Combi with metallic tip cassettes (Thermo Fisher Scientific) previously treated with Sigmacote. Then, 2 μL of the same buffer without MIF was dispensed onto positive control wells. […] In order to remove bubbles, the plate was centrifuged in an Allegra 25R centrifuge (Beckman Coulter, Inc., Brea, CA) at 1000 rpm for 2 min at room temperature. Then, the plate was read in an EnVision. Final concentrations of enzyme and substrate were 3 nM and 1.5 mM, respectively. Initial rates were calculated for each well as the slope of the absorbance progress curve.

Compound | IC50
COc1cc(OC2CCNC2)ccc1C(=O)NCc1nnc(-c2cccs2)o1 (stereo not drawn) [US11884682, Compound 81] | 2510 nM
COc1cc(NCCO)ccc1C(=O)NCc1nnc(-c2cccs2)o1 [US11884682, Compound 79] | 708 nM
COc1cc(N2CCC(O)C2)ccc1C(=O)NCc1nnc(-c2cccs2)o1 (stereo not drawn) [US11884682, Compound 78] | 575 nM
